Experiments:
ALK5 [1] = target: T1, ALK5 (Rattus norvegicus, UniProt P80204); test: Autoradiography on control, MCT- and SuHx-exposed rat lung sections; type: binding; settings: for Binding to MCT-exposed lungs compared with control lungs: MCT-exposed lungs (Wistar) vs healthy lungs normalized to 100%; for Binding to MCT-exposed lungs compared with control lungs / Binding to SuHx-exposed lungs compared with control lungs: n = 3; for Binding to SuHx-exposed lungs compared with control lungs: SuHx-exposed lungs (S.D.) vs healthy lungs normalized to 100%
T1 sequence (P80204 30-501): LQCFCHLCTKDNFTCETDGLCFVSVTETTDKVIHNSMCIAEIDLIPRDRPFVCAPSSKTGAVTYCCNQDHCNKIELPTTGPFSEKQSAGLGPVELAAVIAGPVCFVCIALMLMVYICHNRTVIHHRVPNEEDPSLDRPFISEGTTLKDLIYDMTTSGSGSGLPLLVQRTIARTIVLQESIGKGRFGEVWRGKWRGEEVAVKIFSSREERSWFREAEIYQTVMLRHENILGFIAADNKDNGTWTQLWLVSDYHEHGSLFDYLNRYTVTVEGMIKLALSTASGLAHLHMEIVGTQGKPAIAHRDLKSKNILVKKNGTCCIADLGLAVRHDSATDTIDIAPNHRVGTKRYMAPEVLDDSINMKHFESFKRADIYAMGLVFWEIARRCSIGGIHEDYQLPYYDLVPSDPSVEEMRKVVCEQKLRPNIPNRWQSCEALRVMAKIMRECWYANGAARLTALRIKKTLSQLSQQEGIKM
Method: Sections of 10 μm thickness were cut using a Cryostat ([…]) and thaw mounted on Thermo Scientific Superfrost plus adhesion slides. The sections were stored at- 20 °C until further handling. Tissue sections were defrosted, washed three times for 5 min with 5 mM Tris HCl buffer, pH 7.4 and dried in a cold stream of air. […] Sigma-Aldrich, Zwijndrecht, The Netherlands). The sections were washed in cold 5 mM Tris HCl buffer, pH 7.4, (three times 1 min) followed by a dip in ice cold water. […] Screens were developed on a Typhoon FLA 7000 phosphor imager (GE Healthcare lifescience, Buckinghamshire, UK) and analysed using Image Quant TL v8.1.0.0 (GE Healthcare lifescience, Buckinghamshire, UK). […] Statistical analysis was performed using Graphpad PRISM (v 5.02, Graphpad Software Inc). Tracer uptake in the tissue was compared with tracer uptake co-administered with SB431542 by using a one-tailed unpaired t-test. Differences were considered significant if p < 0.05. Adjacent tissue sections were used for autoradiography experiments.

ALK5 [2] = target: T1, ALK5; test: Dynamic PET imaging of lung uptake in control, MCT- and SuHx-exposed rats; type: in vivo; settings: for Difference in lung uptake between control group and diseased animals after 15 min: after 15 min p.i.
Method: Dynamic PET imaging was performed with NanoPET/CT and nanoPET/MR 1 T scanners (Mediso Ltd., Hungary, Budapest) with identical PET components. All injections were performed via a tail vein catheter. […] Rats were positioned on the scanner bed and the respiratory rate was monitored for the duration of the experiment, adjusting anaesthesia when required. Animals first underwent a computed tomography (CT) or magnetic resonance imaging (MRI) scan to keep the isoflurane exposure as low as possible (see Fig. 2 for the set-up of the experiment). […] Dynamic PET scans, starting at the time of tracer administration, were acquired for 60 min. […] At day 2, all animals received SB431542 30 min prior the injection of [^11C]LR111. In addition, the control group received a cyclosporine A (Sigma-Aldrich, Zwijndrecht, The Netherlands) injection at day 3, 30 min prior to the injection of [^11C]LR111. Finally, at day 4, SB431542 and cyclosporine A injections were administered 30 min prior to the injection of [^11C]LR111. After these scanning experiments, the animals were sacrificed by cervical dislocation. Lung tissues were removed from MCT (n = 3), SuHx (n = 3) and healthy rats (n = 3). They were filled with 50% Tissue-Tek (VWR, Amsterdam, The Netherlands) and 50% physiological salt and snap frozen in liquid nitrogen. Positron emission scans were acquired in list mode and rebinned into the following frame sequence: 4 × 5, 4 × 10, 2 × 30, 3 × 60, 2 × 300, 1 × 600, 1 × 900 and 1 × 1200 s. The scans were reconstructed with a spatial resolution of 0.4 mm and were corrected for attenuation and scatter. The scans of the first 30 s were combined to correct for injection speed differences. Images were analysed using the freely available software AMIDE, version 1.0.4 (http://amide.sourceforge.net/). […] Uptake was expressed as standard uptake values (SUV), which was calculated according to the following equation: SUV=%uptake of the total tracer dose/volume of the region of interest/bodyweight Error bars indicate standard deviation. Statistical analysis was performed using Graphpad PRISM (v 5.02, Graphpad Software Inc). Lung uptake in the control group was compared with uptake in the diseased animals with a one-tailed unpaired t-test. Differences were considered significant if p < 0.05. The representative PET images were generated using VivoQuant2020.

[3] = Ex vivo metabolite analysis in rat blood plasma (SPE/HPLC); settings: for Intact tracer: rat blood plasma, ± SEM, n = 4; for In vivo metabolic stability in rats: in words
Method: (§1) A biodistribution study and metabolite analysis was carried out in healthy male Wistar rats (214 ± 15 g, Charles River, Germany). Rats were injected with 21 ± 15 MBq of [^11C]LR111 in the tail vein under isoflurane anaesthesia (2% in O2 at 1 L min^−1). Rats were sacrificed under similar isoflurane anaesthesia by exsanguination and dissected at 5, 15, 30 and 60 min post injection (p.i.) (n = 4 per time point). Rats were injected with 14 ± 5 MBq [^18F]EW-7197 in the tail vein under isoflurane anaesthesia (2% in O2 at 1 L min^−1). Rats were sacrificed under similar isoflurane anaesthesia by exsanguination and dissected at 5, 15, 30 and 45 min post injection (p.i.) (n = 4 per time point). Blood, heart, lungs, liver, kidneys, urine, bone and brain were collected, weighed and counted for radioactivity (Wallac 1210 Compugamma, PerkinElmer, Waltham, MA, USA). Biodistribution data were expressed as percentage injected dose per gram tissue (%ID·g^−1) ± standard error of the mean (SEM). Blood at 15 min and 60 min p.i. ([^11C]LR111) and blood at 15 min and 45 min p.i. ([^18F]EW-7197), withdrawn from the abdominal aorta, (~ 7 mL) was collected in a heparin coated tube and centrifuged at 5000 rpm to separate plasma from blood cells (Hettich universal 32, Andreas Hettich GmbH & Co. KG, Tuttlingen, Germany). Solid phase extraction (SPE) cartridges (tC2, Waters, Ettenleur, The Netherlands) were preconditioned by washing with 6 mL MeOH and 2 × 6 mL H2O. Plasma (1 mL) was mixed with 6.0 M HCl (50 µL) and loaded on the SPE cartridge (> 99% recovery). The polar metabolite fraction was obtained by eluting the SPE cartridge with H2O (3 mL), the non-polar fraction by subsequent elution with MeOH (2 mL) and H2O (1 mL). Fractions were counted for radioactivity (Wallac 1210 Compugamma, PerkinElmer, Waltham, MA, USA). The percentage of intact tracer in the non-polar fraction was determined by online HPLC analysis on a Dionex (Sunnyvale, CA, USA) UltiMate 3000 HPLC equipment with Chromeleon software (version 6.8) equipped with a Gemini C18 column (5 μm, 10 × 250 mm, Phenomenex, Torrance, CA, USA) with a mixture of MeCN (A) and 0.1% TFA in water (B) as eluent according to the following scheme 0 min: 90% B; 12 min 15% B; 8 min 90% B at 3.5 mL.min^−1 [^11C]LR111 Rt = 10.7 min and [^18F]EW-7197 Rt = 9.2 min. Results were expressed as percentage of intact tracer, polar metabolites and non-polar metabolites ± SEM (n = 4 for each time point).

[4] = Ex vivo biodistribution study in healthy male Wistar rats; parameters: species or system rat; settings: i.v., ± SEM; for Retention in healthy lung tissue: 15 min p.i., n = 4
Method: as §1, with “Solid phase extraction (SPE) cartridges (tC2, Waters, Ettenleur, The Netherlands) were preconditioned by washing with 6 mL MeOH and 2 × 6 mL H2O. Plasma (1 mL) was mixed with 6.0 M HCl (50 µL) and loaded on the SPE cartridge (> 99% recovery). The polar metabolite fraction was obtained by eluting the SPE cartridge with H2O (3 mL), the non-polar fraction by subsequent elution with MeOH (2 mL) and H2O (1 mL).” left out

P-gp = test: PET imaging after cyclosporine A (efflux pump inhibitor) in healthy rats; type: in vivo, rat; settings: increased lung uptake in healthy rats after cyclosporine A
Method: Dynamic PET imaging was performed with NanoPET/CT and nanoPET/MR 1 T scanners (Mediso Ltd., Hungary, Budapest) with identical PET components. All injections were performed via a tail vein catheter. […] Rats were positioned on the scanner bed and the respiratory rate was monitored for the duration of the experiment, adjusting anaesthesia when required. Animals first underwent a computed tomography (CT) or magnetic resonance imaging (MRI) scan to keep the isoflurane exposure as low as possible (see Fig. 2 for the set-up of the experiment). All tracer injections were performed via a tail vein catheter using 4 and 2% isoflurane in 1 L min^−1 oxygen for induction and maintenance, respectively (see Table 1 for animal weights and injected doses). Dynamic PET scans, starting at the time of tracer administration, were acquired for 60 min. Immediately after the [^11C]LR111 scan, a bolus injection of [^18F]EW-7197 was administered, in order to minimize the time that rats were exposed to isoflurane, and another dynamic PET scan was acquired. […] Images were analysed using the freely available software AMIDE, version 1.0.4 (http://amide.sourceforge.net/). […] Uptake was expressed as standard uptake values (SUV), which was calculated according to the following equation: SUV=%uptake of the total tracer dose/volume of the region of interest/bodyweight

[5] = PET, 15 min p.i., MCT rats, baseline scan
[6] = PET, 15 min p.i., SuHx rats, baseline scan
[7] = PET, 15 min p.i., healthy Wistar rats, SB431542 20 mg kg^−1 30 min prior
[8] = PET, 15 min p.i., healthy Wistar rats, baseline
[9] = PET, 15 min p.i., healthy Wistar rats, cyclosporine A 50 mg kg^−1 30 min prior
[10] = PET, 15 min p.i., healthy Wistar rats, cyclosporine A + SB431542
[11] = PET, 15 min p.i., healthy Wistar rats

SMILES	Binding to MCT-exposed lungs compared with control lungs (ALK5 [1]) [times]	Binding to SuHx-exposed lungs compared with control lungs (ALK5 [1]) [times]	Lung uptake in MCT-exposed rats compared with control group (ALK5 [2]; PET, 15 min p.i.) [fold]	Lung uptake in SuHx rats compared with control group (ALK5 [2]; PET, 15 min p.i.)	Uptake in the lungs (ALK5 [2]; [5]) [SUV]	Uptake in the lungs (ALK5 [2]; [6]) [SUV]	Uptake in the lungs (ALK5 [2]; [7]) [SUV]	Uptake in the lungs (ALK5 [2]; [8]) [SUV]	Uptake in the lungs (ALK5 [2]; [9]) [SUV]	Uptake in the lungs (ALK5 [2]; [10]) [SUV]	Difference in lung uptake between control group and diseased animals after 15 min (ALK5 [2]; PET)	Intact tracer ([3]; 15 min p.i.) [%]	In vivo metabolic stability in rats [3]	Retention in healthy lung tissue [4] [% ID·g^−1]	also measured
Cc1csc(-c2nc(CN[11C](=O)OCC(C)C)[nH]c2-c2ccc3ncsc3c2)n1 [[^11C]LR111]	1.5	3.2	1.1	similar	1.10 ± 0.25	1.04 ± 0.13	0.85 ± 0.12	1.03 ± 0.07	0.85 ± 0.19	1.00 ± 0.32	no difference	74 ± 5	moderately stable	0.45 ± 0.03	Tracer binding when SB431542 was added (ALK5 [1]; SB431542 94 µM): could be blocked; Intact tracer ([3]; 60 min p.i.): 46 ± 2%
Cc1cccc(-c2[nH]c(CNc3ccccc3[18F])nc2-c2ccc3ncnn3c2)n1 [[^18F]EW-7197, N-((4-(1,2,4 triazolo 1,5-apyridin-6-yl)-5-(6-methylpyridin-2-yl)-1H-imidazol-2-yl)methyl)-2-fluoroaniline]	1.2	1.2	1.4	2.5 fold	0.81 ± 0.15	1.47 ± 0.47	0.44 ± 0.12	0.59 ± 0.10	0.90 ± 0.18	0.72 ± 0.21	no difference	55 ± 16	moderately stable	0.56 ± 0.07	Blocking of lung uptake with SB431542 in PET scans (ALK5 [2]; PET images, SB431542 20 mg kg^−1): could be blocked; Lung accumulation with cyclosporine A and SB431542 relative to baseline (ALK5 [2]; [11]): 1.2 fold; Lung accumulation with cyclosporine A relative to baseline (ALK5 [2]; [11]): 1.5 fold; Intact tracer ([3]; 45 min p.i.): 23 ± 5%; Substrate for P-gp (P-gp): substrate for P-gp; Retention in bone [4]: 0.21 ± 0.02 % ID·g^−1
